Data taken from patent US11850256B2, “Small molecule-mediated restoration of airway surface physiology in human cystic fibrosis lung epithelia” (The Board of Trustees of the University of Illinois, priority 2016, dated 2023).
“Also recorded” adds a separate entry of the source.

What was measured:
[1] = test system: CuFi-1 epithelial monolayers; test: Airway surface liquid (ASL) pH assay, SNARF-dextran ratiometric dye, CuFi-1 monolayers; type: cell-based, human
Method: Airway surface liquid (ASL) pH assay. ASL pH was studied using an established fluorescent dye assay using the Dextran, SNARF®-1, 70,000 MW ratiometric dye (Thermo Fisher D3304). Mature, differentiated CuFi-1 (ATCC CRL-4013) epithelial monolayers were grown on Corning Costar 0.4 μm Transwell Clear Polyester Membrane cell culture inserts (Corning 3470). CuFi epithelia were treated with perfluorinated hydrocarbon (PFC) vehicle, AmB, AmB:Chol or Chol and incubated for the time course of the experiment at 37° C. On the day of imaging, 100 μL of a suspension of SNARF-dextran in PFC was added to the apical side of the monolayers. Monolayers were imaged 2 hours after dye addition. The monolayers were placed on 100 μL of Ultroser G media on a 10 mm glass bottom Fluorodish for imaging (World Precision Instruments). Five images per membrane were taken on a Zeiss LSM 880 confocal microscope at 40× water immersion. These images were analyzed using ImageJ to determine the green to red ratio of each image. Solutions of known pH were used to calibrate pH detection using this system. […]

[2] = test system: CF primary human lung epithelia; test: Change in short-circuit current in CF primary human lung epithelia after AmB treatment; type: cell-based; conditions: 2 μM, 48 h
Method: Non-CF (control) and CF primary human lung epithelia were prepared and maintained in vitro as previously described. Pezzulo A A et al. (2012) Nature 487: 109-113. For example, epithelial cells were isolated from the trachea and bronchi by enzymatic digestion, seeded onto collagen-coated semi-permeable membranes (0.6 cm^2 Millicell-PCF; Millipore, Bedford, MA), and grown at the air-liquid interface as previously described in Karp P H et al. (2002) In Wise C., Epithelial Cell Culture Protocols, Humana Press, Inc. 188: 115-137. Culture medium, a 1:1 mixture of Dulbecco's modified Eagle's medium and Ham's F12 medium (DMEM/F12), was supplemented with 2% Ultroser G (PALL France SAS; Saint Germain-en-Laye, France). Differentiated epithelia were used at least 14 days after seeding.
These cells were treated with AmB at a final concentration of 2 μM for 48 h, and then change in short-circuit current was measured.

[3] = test system: CuFi-1 monolayers; test: Ussing chamber response to forskolin/IBMX CFTR activation in CuFi-1 monolayers; type: cell-based, human; conditions: after 48 hr treatment
Method: After observing this decrease of efficacy with increasing dose, AmB was pre-complexed with cholesterol to mitigate its potentially disruptive sterol binding activity, following the mechanistic model laid out in previous studies. Gray K C et al. (2012) Proc Natl Acad Sci USA 109(7): 2234-2239; Anderson T M et al. (2014) Nat Chem Biol 10(5): 400-406. The activity of an AmB:cholesterol complex was tested, and this complex was able to extend the effective dose of ASL pH rescue out to 100 μM (FIG. 21). After 48 hr treatment with AmB, CuFi-1 monolayers were evaluated in an Ussing chamber.

[4] = Proton release (1:100 AmB:lipid vs DMSO); conditions: FIG. 18
Method: FIG. 18 depicts the effect of 1:100 AmB:lipid (circles) compared to DMSO (triangles) on proton release.
To directly probe whether AmB-mediated bicarbonate transport causes the ASL pH increase, pH-stat experiments were performed in large NuLi and CuFi-1 epithelial monolayers either in the presence of bicarbonate or in bicarbonate-free solution. Cho, D Y, et al., (2009) Am J Rhinol Allergy 23, e10-13; Cho, D Y, et al., (2011) Int Forum Allergy Rhinol 1, 123-127. […] To address the potential role of proton absorption in the alkalization of the ASL, these experiments were repeated in bicarbonate-free buffer.

[5] = test system: CF primary human lung epithelia; test: ASL viscosity in CF primary human lung epithelia; type: cell-based; conditions: 2 μM, 48 h; vs untreated CF epithelia
Method: Non-CF (control) and CF primary human lung epithelia were prepared and maintained in vitro as previously described. Pezzulo A A et al. (2012) Nature 487: 109-113. These cells were treated with AmB at a final concentration of 2 μM for 48 h, and then ASL viscosity was measured.

[6] = test system: Human red blood cells (RBCs); test: Hemolysis of human red blood cells; type: cell-based
Method: Against Toxicity but Preserves Permeabilization of CF Human Lung Epithelia Human red blood cells (RBCs) were separated from whole blood by centrifugation and then exposed to AmB or pre-formed AmB:Chol complexes (1:5) (Example 8) over a range of concentrations up to 20 μM. Hemolysis was then measured.

[7] = test system: CuFi-1 (ΔF508/ΔF508) epithelial monolayers; test: 14C bicarbonate transport in CuFi-1 monolayers; type: cell-based, human
Method: ^14C bicarbonate was administered to the basolateral side of monolayers to trace ion movement through the cells over time. Epithelial monolayers grown from the patient-derived lung epithelial cell line CuFi-1 (ΔF508/ΔF508) were also studied. The genotype ΔF508/ΔF508 represents about 46.5% of all CF patients and is considered a relatively severe deficiency. Permeabilization of the apical membrane to bicarbonate anions with AmB could correct the flux abnormality resulting from the loss of CFTR. Upon treatment with 2 μM AmB for 48 hours, a decrease in intracellular ^14C bicarbonate and an increase in ASL ^14C bicarbonate compared to CuFi-1 alone was observed (FIGS. 15A and 15B).

[8] = test system: protein ion channel-deficient yeast (trk1Δtrk2Δ); conditions: cited from earlier work
[9] = test system: yeast; conditions: cited from earlier work

C[C@@H]1[C@H](O)[C@@H](C)/C=C/C=C/C=C/C=C/C=C/C=C/C=C/[C@H](O[C@@H]2O[C@H](C)[C@@H](O)[C@H](N)[C@@H]2O)C[C@@H]2O[C@](O)(C[C@@H](O)C[C@@H](O)[C@H](O)CC[C@@H](O)C[C@@H](O)CC(=O)O[C@H]1C)C[C@H](O)[C@H]2C(=O)O [AmB, amphotericin B]
effect on ASL pH, apical addition ([1]; CuFi-1): increase ASL pH; also recorded: efficacious | effect on ASL pH, basolateral addition ([1]; CuFi-1, basolateral addition): unable to increase ASL pH; also recorded: not basolateral | drop of ASL pH below the starting pH ([1]; Example 7, FIG. 8, by 25 μM and beyond): about 0.05 pH units | dose up to which ASL pH increased ([1]; Example 7, FIG. 8, suspension in PFC): 2 μM | ASL pH at high dose ([1]; Example 14, FIG. 21, by 25 μM): back down to the starting pH | dose at which ASL pH increase peaks ([1]; Example 14, FIG. 21, suspension in PFC): 5 μM | change in short-circuit current compared to untreated CF epithelia [2]: no significant difference | increase in short circuit current in response to forskolin/IBMX CFTR activation [3]: neither untreated nor AmB-treated CuFi-1 monolayers had an increase in short circuit current; also recorded: no increase in short circuit current | proton transport [4]: able to transport protons | ASL viscosity [5]: significantly decreased ASL viscosity | concentration giving 50 percent hemolysis [6]: about 7 μM | concentration giving 100 percent hemolysis [6]: about 10 μM | intracellular 14C bicarbonate ([7]; 2 μM, 48 hours, compared to CuFi-1 alone): decrease | ASL 14C bicarbonate, apical treatment ([7]; CuFi-1): significantly increase; also recorded: increase bicarbonate in ASL | apical transport of bicarbonate, basolateral treatment ([7]; CuFi-1, basolateral): unable to increase apical transport of bicarbonate; also recorded: not basolateral | yeast growth rescue [8]: restored to normal phenotype (growth); also recorded: restore growth | fungicidal activity / toxicity to yeast [9]: highly toxic to yeast
